These results are taken from patent publication US20240254129A1, “HETEROCYCLIC COMPOUNDS AND USES THEREOF” (Kumquat Biosciences Inc., priority 2021, published 2024).

The target of assay [1] is GST-tagged K-Ras mutant / His-tagged hSOS1 (Homo sapiens, UniProt P01116). The assay is described as follows: HTRF assay, K-Ras mutant / SOS1 interaction. Type of assay: binding. To be noted: read-out: IC50 against mutant Kras. The method in brief: (§1)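 GST-tagged K-Ras (mutant or wildtype) with anti-GST-Eu donor was mixed with His-hSOS1 and anti-6His-XL665 acceptor in HEPES pH 7.4 buffer with NaCl, DTT, BSA and Igepal. After ≥10 min, HTRF was read (ex 337 nm, em 620/665 nm); 665/620 ratios gave IC50 from duplicate dilution series.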
(TR-FRET usually uses a lanthanide donor and a delayed reading to cut background.)

A further assay concerns the target T1, wildtype Kras / hSOS1 (Homo sapiens, UniProt P01116).
T1 construct: made in house; host or cells: E. coli BL21 (DE3)
The assay is described as follows: HTRF assay, wildtype Kras / SOS1 interaction. Type of assay: binding. To be noted: read-out: IC50 against wildtype Kras. The method in brief: as §1

Where [2] appears, read: compound nos. 102-196, general methodology of example 5.
[3] abbreviates: compound nos. 201-213, general methodology of example 5.

Structures are written as SMILES. Read-outs that look alike come from different tables or passages of the source.

In general, IC50 refers to the concentration needed to halve the response being measured.

Chain of GST-tagged K-Ras mutant / His-tagged hSOS1 (P01116 whole entry G12D, form open): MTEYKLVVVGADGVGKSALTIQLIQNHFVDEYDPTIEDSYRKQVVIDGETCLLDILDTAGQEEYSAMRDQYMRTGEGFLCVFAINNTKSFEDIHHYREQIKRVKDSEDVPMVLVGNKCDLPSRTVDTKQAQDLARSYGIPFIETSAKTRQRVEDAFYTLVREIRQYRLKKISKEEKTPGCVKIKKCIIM
T1 sequence (P01116 1-188 isoform P01116-2): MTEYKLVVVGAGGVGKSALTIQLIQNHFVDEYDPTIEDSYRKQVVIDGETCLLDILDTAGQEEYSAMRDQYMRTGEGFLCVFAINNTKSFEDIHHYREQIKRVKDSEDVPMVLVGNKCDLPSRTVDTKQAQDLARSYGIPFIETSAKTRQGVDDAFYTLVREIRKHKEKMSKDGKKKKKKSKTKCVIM

With `N#CCCc1cc2c(N3CC4CCC(C3)N4)nc(OC[C@@]34CCCN3C[C@H](F)C4)nc2c(F)c1-c1ccc(F)c2sc(N)nc12` [Compound 496, 3-(7-(2-amino-7-fluoroben-zo[d]thiazol-4-yl)-4-(3,8-diazabicyclo[3.2.1]octan-3-yl)-8-fluoro-2-(((2R,7aS)-2-fluorotetrahydro-1H-pyrrol-izin-7a(5H)-yl)methoxy)-quinazolin-6-yl)propane-nitrile], the 50% inhibitory concentration (IC50) (in assay [1] (compound nos. 401-703); on wildtype Kras / hSOS1 (compound nos. 401-703)) was under 500 nM each time.
For the molecule `Nc1nc2c(-c3c(Cl)cc4c(N5CCNCC(F)(F)C5)nc(OCCCN5CCCC5)nc4c3F)ccc(F)c2s1` [Compound 555, 4-(6-chloro-4-(6,6-difluoro-1,4-diazepan-1-yl)-8-fluoro-2-(3-(pyrrolidin-1-yl)-propoxy)quinazolin-7-yl)-7-fluorobenzo[d]thiazol-2-amine], the half-inhibitory concentration (IC50) in assay [1] (compound nos. 401-703) is under 500 nM; on wildtype Kras / hSOS1 (compound nos. 401-703) it was over 500 nM.
As for `CC1CCCCN(c2nc(OC[C@@H]3CCCN3C)nc3c(F)c(-c4cccc5sc(N)nc45)c(Cl)cc23)C1` (stereo partly drawn) [Compound 550, 4-(6-chloro-8-fluoro-4-(3-methylazepan-1-yl)-2-(((S)-1-methylpyrrolidin-2-yl)-methoxy)quinazolin-7-yl)-benzo[d]thiazol-2-amine], the values for the IC50 (in assay [1] (compound nos. 401-703); at wildtype Kras / hSOS1 (compound nos. 401-703)) were under 500 nM and over 500 nM, respectively.
Turning to `N#CC1CCCN(c2nc(OCC34CCCN3CCC4)nc3c(F)c(-c4ccc(F)c5sc(N)nc45)c(Cl)cc23)CC1` (stereo not drawn) [Compound 172, 1-(7-(2-amino-7-fluoro-benzo[d]thiazol-4-yl)-6-chloro-8-fluoro-2-((tetra-hydro-1H-pyrrolizin-7a(5H)-yl)methoxy)-quinazolin-4-yl)azepane-4-carbonitrile], the IC50 (in assay [1] (setting [2]); at wildtype Kras / hSOS1 (setting [2])) was under 500 nM in each case.
As to `CN(C)CC1(COc2nc(N3C[C@H]4CC[C@@H](C3)N4)c3cc(Cl)c(-c4ccc(F)c5sc(N)nc45)c(F)c3n2)CC1` [Compound 210], the IC50 (in assay [1] (setting [3]); at wildtype Kras / hSOS1 (setting [3])) was under 1500 nM in each case.
Take `Nc1nc2c(-c3c(Cl)cc4c(N5CCC6CNCC6C5)nc(OC[C@@]56CCCN5C[C@H](F)C6)nc4c3F)ccc(F)c2s1` (stereo partly drawn) [Compound 623, 4-(6-chloro-8-fluoro-2-(((2R,7aS)-2-fluorotetra-hydro-1H-pyrrolizin-7a(5H)-yl)methoxy)-4-(octahydro-5H-pyrrolo[3,4-c]pyridin-5-yl)quinazolin-7-yl)-7-fluoro-benzo[d]thiazol-2-amine]: the IC50 in assay [1] (compound nos. 401-703) is under 500 nM; on wildtype Kras / hSOS1 (compound nos. 401-703), over 500 nM.
For `Cc1ccnc(C(C)C)c1-n1c(=O)nc(N2CCNCC(F)(F)C2)c2cc(F)c(-c3cc(O)cc4ccccc34)nc21` [Compound 196, 4-(6,6-difluoro-1,4-diazepan-1-yl)-6-fluoro-7-(3-hydroxynaphthalen-1-yl)-1-(2-isopropyl-4-methyl-pyridin-3-yl)pyrido[2,3-d]-pyrimidin-2(1H)-one], the IC50 (in assay [1] (setting [2]); on wildtype Kras / hSOS1 (setting [2])) was over 500 nM throughout.
On to `Cc1nc2c(-c3c(Cl)cc4c(N5CCNCC(F)(F)C5)nc(OC[C@@H]5CCCN5C)nc4c3F)cccc2s1` [Compound 138, 4-(6-chloro-4-(6,6-difluoro-1,4-diazepan-1-yl)-8-fluoro-2-(((S)-1-methylpyrrolidin-2-yl)methoxy)quinazolin-7-yl)-2-methylbenzo[d]thiazole], for which the concentration for half-maximal inhibition (IC50) (in assay [1] (setting [2]); at wildtype Kras / hSOS1 (setting [2])) was over 500 nM throughout.
As to `Nc1ccc2cccc(-c3ccc4c(N5CC6CCC(C5)N6)nc(OCC56CCCN5CCC6)nc4c3F)c2n1` [Compound 596, 8-(4-(3,8-diazabicyclo-[3.2.1]octan-3-yl)-8-fluoro-2-((tetrahydro-1H-pyrrol-izin-7a(5H)-yl)methoxy)-quinazolin-7-yl)quinolin-2-amine], the concentration for half-maximal inhibition (IC50) (in assay [1] (compound nos. 401-703); on wildtype Kras / hSOS1 (compound nos. 401-703)) was over 500 nM throughout.
